Values quoted from earlier work in patent US20120115783A1, “PEPTIDOMIMETIC MACROCYCLES” (Alleron therapeutics, Inc, priority 2008, published 2012).

Test system: HCT116 tumour xenografts

CN1C(=O)[C@]2(Cc3cn([C@]45C[C@@]67SS[C@@](CO)(C(=O)N6[C@H]4Nc4ccccc45)N(C)C7=O)c4ccccc34)SS[C@@]1(CO)C(=O)N2C [chetomin]
growth of HCT116 tumour xenografts (HCT116 tumour xenografts): inhibited their growth | hypoxia-inducible transcription within HCT116 tumour xenografts (within HCT116 tumour xenografts, pharmacological inhibition of HIF-1α): inhibited hypoxia-inducible transcription
